Here are results for six compounds from patent US7947827B2 (priority 2006, dated 2011).

As usually defined, the LD50 is the dose at which mortality reaches 50%.

Where two headings read alike, the source gives them in different places.

For series [1] the following is noted: in vivo, po; cited from earlier work.
On the set-up of series [2]: species or system sheep. The settings on record: in vivo.
Details of series [3]: species or system humans. The settings on record: in vivo.
For series [4] the following is noted: rhesus monkey, in vivo, iv.
For series [5] the following is noted: rhesus monkey, in vivo, iv; cited from earlier work.
For series [6] the following is noted: rat, in vivo; cited from earlier work.
For series [7] the following is noted: in vivo, ip; cited from earlier work.
The conditions of series [8]: rat, in vivo, cited from earlier work.
For series [9] the following is noted: rabbit, in vivo, cited from earlier work.
For series [10] the following is noted: dog, in vivo, cited from earlier work.
The conditions of series [11]: mouse, in vivo, cited from earlier work.
The conditions of series [12]: pig, in vivo, cited from earlier work.
The subject of series [13] is NQO activity in cultured murine hepatoma cells. Particulars: cited from earlier work.
Series [14] has as its system azoxymethane- and IQ-induced aberrant crypt foci. The settings on record: in vivo; cited from earlier work.
For series [15] the following is noted: rat, in vivo; cited from earlier work. This is another data set of the same source.
For series [16] the following is noted: rat, in vivo; cited from earlier work. The source holds these as a separate data set.
The conditions of series [17]: guinea pig, in vivo; cited from earlier work.
For series [18] the following is noted: rat, in vivo; cited from earlier work. The source holds these as a separate data set.
The conditions of series [19]: in vivo; cited from earlier work.
For series [20] the following is noted: rat, in vivo; cited from earlier work. The source holds these as a separate data set.
Series [21] relates to bone marrow cells of mice. The settings on record: mouse, in vivo; cited from earlier work.
The conditions of series [22]: mouse, in vivo, po, 2500 mg/kg; cited from earlier work.

`COc1cc2c(c3oc(=O)c4c(c13)CCC4=O)[C@@H]1C=CO[C@@H]1O2` [AFB1, aflatoxin B1]: the “total dose excreted in first 48 hours” value in series [1] is listed as “approximately 90%”. Moreover, the t1/2 result in [2] is reported as “approximately 24 hours”. Moreover, in series [3], the “terminal half-life, conservative estimate” value is “less than 24 hours” and the “time to complete absorption” value fell in the range of 0.5 to 1.0 h. For the same compound, in [4], the “terminal half-life (t1/2β) from all routes of excretion” value was “approximately 24 hours”. Also, in series [5], the “dose eliminated in urine as chloroform extractable, first 24 hours” value was ~10%; the “dose eliminated in urine as unbound, first 24 hours” value is reported as ~30%; the “dose eliminated in urine within first 24 hours” value was 40%; the “dose remaining in the liver at 100 hours” value was 13.6%. Also, in series [5], the “dose remaining in the plasma at 100 hours” value was 5.8%; the “fecal excretion of dose, 24 to 48 hours” value is 20%; the “fecal excretion of dose, 48 to 72 hours” value is ~6%; the “fecal excretion of dose, 72 to 100 hours” value is listed as ~3%. Moreover, in series [5], the “fecal excretion of dose, first 24 hours” value was ~4% and the “total excreta after 100 hours, of administered dose” value is 73.1%. Also, the “absorption rate constant (ka)” value in series [6] is 5.84 ± 0.05 h⁻¹.
Regarding Sodium chlorophyllin copper complex, the LD50 in series [7] is > 60 mg/kg; in [8] (im) it was > 250 mg/kg; in series [8] (ip), > 1000 mg/kg; in [8] (iv), > 250 mg/kg; in series [9] (im), > 60 mg/kg; in series [9] (ip) it was > 500 mg/kg. For the same compound, the 50% lethal dose (LD50) in series [9] (iv) was > 200 mg/kg; in series [10] (im) it was > 50 mg/kg; in series [10] (ip), > 200 mg/kg; in [10] (iv), > 200 mg/kg; in [11] (im) it was > 500 mg/kg; in [11] (ip), > 1000 mg/kg. Besides, the values for the LD50 in series [11] (iv), in series [12] (im) and in series [12] (iv) were > 400 mg/kg, > 20 mg/kg and > 10 mg/kg, respectively.
On to chlorin e4 ethyl ester, for which, in [13], the “concentration required to double NQO activity (CD)” value is 20 µM and the “potency as NQO inducer relative to Chl” value is 50 times.
As for chlorophyll, the “azoxymethane- and IQ-induced aberrant crypt foci” value in series [14] is “inhibited”.
On to “potassium sodium chlorophyllin copper complex [sodium potassium chlorophyllin]”, for which, in series [15], the “copper storage in liver, kidney or spleen” value is reported as “No copper storage occurred”. In series [16], the “Cu toxicity or deposition in liver, kidney or spleen” value is on record as “no evidence of Cu toxicity or deposition” and the “gross or histopathological changes” value is given as “No gross or histopathological changes”. Also, the “ill effects or pathological change” value in series [17] is “without ill effects or pathological change”. Also, the adverse effects result in series [18] was “without any adverse effects except weight loss related to food refusal”. Further, the scurvy entry in [19] was “no evidence of scurvy”. Besides, the 50% lethal dose (LD50) in [11] (po) was 7000 mg/kg. In [20], the effects in offspring result is “locomotory difficulties and skeletal muscle defects”.
As to sodium copper chlorophyllin, the “reducing clastogenicity from cesium chloride, mercuric chloride and cobalt chloride” value in series [21] is “demonstrated efficacy”. For the same compound, in [13], the “concentration required to double NQO activity (CD)” value is 30 µM and the “potency as NQO inducer relative to Chl” value is on record as ~10 times. In addition, the ill effects entry in series [22] is “without any ill effects”.
